{
  "source": "patent US9364479B2",
  "about": "“Use of a receptor-type kinase modulator for treating polycystic kidney disease” (SYMPHONY EVOLUTION, INC., priority 2010, dated 2016)",
  "key": {"PDGFRβ [1]": {"target": "T1, PDGFRβ (Homo sapiens, UniProt P09619)", "T1 sequence (P09619 33-1106, species assumed)": "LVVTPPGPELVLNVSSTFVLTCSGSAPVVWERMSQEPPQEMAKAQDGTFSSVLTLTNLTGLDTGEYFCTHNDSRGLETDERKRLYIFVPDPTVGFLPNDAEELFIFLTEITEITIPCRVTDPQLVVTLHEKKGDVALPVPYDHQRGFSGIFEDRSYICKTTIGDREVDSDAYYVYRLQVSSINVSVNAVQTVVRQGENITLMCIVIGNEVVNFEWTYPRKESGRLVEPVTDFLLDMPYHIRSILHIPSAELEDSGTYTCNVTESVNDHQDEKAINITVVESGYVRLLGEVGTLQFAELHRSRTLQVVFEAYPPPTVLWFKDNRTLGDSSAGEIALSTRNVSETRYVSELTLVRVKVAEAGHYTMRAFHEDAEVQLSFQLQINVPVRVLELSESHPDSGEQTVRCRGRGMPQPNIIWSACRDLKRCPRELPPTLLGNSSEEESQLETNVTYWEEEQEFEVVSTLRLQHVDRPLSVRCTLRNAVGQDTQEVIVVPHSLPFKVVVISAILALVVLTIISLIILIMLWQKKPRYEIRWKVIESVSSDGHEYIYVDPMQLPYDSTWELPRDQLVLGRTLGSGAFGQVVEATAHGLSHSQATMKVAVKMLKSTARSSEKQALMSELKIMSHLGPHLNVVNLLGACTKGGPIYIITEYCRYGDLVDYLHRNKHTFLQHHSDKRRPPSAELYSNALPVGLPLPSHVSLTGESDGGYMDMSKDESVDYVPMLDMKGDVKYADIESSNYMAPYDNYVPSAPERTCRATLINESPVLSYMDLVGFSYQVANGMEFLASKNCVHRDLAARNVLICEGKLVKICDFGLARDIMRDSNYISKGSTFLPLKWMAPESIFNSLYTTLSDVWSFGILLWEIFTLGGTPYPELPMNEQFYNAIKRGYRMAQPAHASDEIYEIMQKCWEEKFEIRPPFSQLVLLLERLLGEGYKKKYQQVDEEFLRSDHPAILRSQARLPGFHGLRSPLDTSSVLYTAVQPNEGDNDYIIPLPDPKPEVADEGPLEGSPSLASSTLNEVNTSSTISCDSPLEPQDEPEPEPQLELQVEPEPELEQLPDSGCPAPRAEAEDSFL", "experiment": "Cellular autophosphorylation assay", "assay_type": "cell-based"}, "PKC-ξ": {"target": "T2, PKC-ξ", "T2 construct": "PKC-eta; Human, PanVera", "experiment": "In vitro kinase inhibition screen", "assay_type": "biochemical", "protocol": "(§1) Further screening was performed using the biochemical assay methods of Example 2. Additional description of the components and concentrations are summarized in Table 8, Table 9, and Table 10, below."}, "Rsk2": {"target": "Rsk2 (Homo sapiens, UniProt P51812)", "experiment": "In vitro kinase inhibition screen", "assay_type": "biochemical", "protocol": "as §1"}, "SGK": {"target": "SGK (Homo sapiens, UniProt O00141)", "experiment": "In vitro kinase inhibition screen", "assay_type": "biochemical", "protocol": "as §1"}, "IKKβ": {"target": "IKKβ (Homo sapiens, UniProt O14920)", "experiment": "In vitro kinase inhibition screen", "assay_type": "biochemical", "protocol": "as §1"}, "Syk": {"target": "Syk (Homo sapiens, UniProt P43405)", "experiment": "In vitro kinase inhibition screen", "assay_type": "biochemical", "protocol": "as §1"}, "PKC-γ": {"target": "PKC-γ (Homo sapiens, UniProt P05129)", "experiment": "In vitro kinase inhibition screen", "assay_type": "biochemical", "protocol": "as §1"}, "CDK2": {"target": "CDK2 (Homo sapiens, UniProt P24941)", "experiment": "In vitro kinase inhibition screen", "assay_type": "biochemical", "protocol": "as §1"}, "AMPK": {"target": "AMPK", "experiment": "In vitro kinase inhibition screen", "assay_type": "biochemical", "protocol": "as §1"}, "JNK3α": {"target": "JNK3α (Homo sapiens, UniProt P53779)", "experiment": "In vitro kinase inhibition screen", "assay_type": "biochemical", "protocol": "as §1"}, "IKKα": {"target": "IKKα (Homo sapiens, UniProt O15111)", "experiment": "In vitro kinase inhibition screen", "assay_type": "biochemical", "protocol": "as §1"}, "Rsk3": {"target": "Rsk3 (Homo sapiens, UniProt Q15349)", "experiment": "In vitro kinase inhibition screen", "assay_type": "biochemical", "protocol": "as §1"}, "CSK": {"target": "CSK (Homo sapiens, UniProt P41240)", "experiment": "In vitro kinase inhibition screen", "assay_type": "biochemical", "protocol": "as §1"}, "MAPKAP2": {"target": "MAPKAP2 (Homo sapiens, UniProt P49137)", "experiment": "In vitro kinase inhibition screen", "assay_type": "biochemical", "protocol": "as §1"}, "Clk2": {"target": "Clk2 (Homo sapiens, UniProt P49760)", "experiment": "In vitro kinase inhibition screen", "assay_type": "biochemical", "protocol": "as §1"}, "CDK3": {"target": "CDK3 (Homo sapiens, UniProt Q00526)", "sequence (Q00526 whole entry, species assumed)": "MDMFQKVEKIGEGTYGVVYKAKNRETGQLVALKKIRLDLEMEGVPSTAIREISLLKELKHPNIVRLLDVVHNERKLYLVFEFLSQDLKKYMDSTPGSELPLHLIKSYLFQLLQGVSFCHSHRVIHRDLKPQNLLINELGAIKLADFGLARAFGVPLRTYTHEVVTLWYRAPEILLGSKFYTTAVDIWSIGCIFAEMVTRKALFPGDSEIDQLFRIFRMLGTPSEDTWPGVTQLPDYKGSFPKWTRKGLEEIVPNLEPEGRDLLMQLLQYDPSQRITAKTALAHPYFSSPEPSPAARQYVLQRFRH", "sequence (P24864 whole entry partner, species assumed)": "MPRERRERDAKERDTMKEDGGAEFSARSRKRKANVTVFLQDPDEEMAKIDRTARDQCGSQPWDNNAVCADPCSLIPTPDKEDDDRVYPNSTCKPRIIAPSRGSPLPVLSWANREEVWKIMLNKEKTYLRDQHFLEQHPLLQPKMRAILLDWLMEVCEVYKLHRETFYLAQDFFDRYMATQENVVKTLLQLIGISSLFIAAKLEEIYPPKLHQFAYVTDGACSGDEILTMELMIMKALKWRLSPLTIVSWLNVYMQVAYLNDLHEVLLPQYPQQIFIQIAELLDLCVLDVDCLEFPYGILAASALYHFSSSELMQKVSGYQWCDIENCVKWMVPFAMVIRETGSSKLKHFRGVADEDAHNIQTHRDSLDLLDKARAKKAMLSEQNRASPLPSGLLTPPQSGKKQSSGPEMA", "experiment": "In vitro kinase inhibition screen", "assay_type": "biochemical", "protocol": "as §1"}, "SAPK3": {"target": "SAPK3 (Homo sapiens, UniProt P53778)", "sequence (P53778 whole entry, species assumed)": "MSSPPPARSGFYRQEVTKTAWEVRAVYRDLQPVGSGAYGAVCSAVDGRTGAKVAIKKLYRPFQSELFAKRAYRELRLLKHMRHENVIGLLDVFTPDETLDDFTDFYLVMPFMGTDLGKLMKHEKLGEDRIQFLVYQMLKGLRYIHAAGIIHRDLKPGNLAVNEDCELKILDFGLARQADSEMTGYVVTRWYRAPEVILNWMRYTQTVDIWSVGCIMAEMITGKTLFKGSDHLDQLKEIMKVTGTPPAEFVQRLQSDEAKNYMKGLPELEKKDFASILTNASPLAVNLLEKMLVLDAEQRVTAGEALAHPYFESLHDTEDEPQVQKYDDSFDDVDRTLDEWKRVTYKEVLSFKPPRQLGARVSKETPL", "experiment": "In vitro kinase inhibition screen", "assay_type": "biochemical", "protocol": "as §1"}, "MKK7β": {"target": "MKK7β (Homo sapiens, UniProt O14733)", "experiment": "In vitro kinase inhibition screen", "assay_type": "biochemical", "protocol": "as §1"}, "JNK2α": {"target": "JNK2α (Homo sapiens, UniProt P45984)", "sequence (P45984 whole entry)": "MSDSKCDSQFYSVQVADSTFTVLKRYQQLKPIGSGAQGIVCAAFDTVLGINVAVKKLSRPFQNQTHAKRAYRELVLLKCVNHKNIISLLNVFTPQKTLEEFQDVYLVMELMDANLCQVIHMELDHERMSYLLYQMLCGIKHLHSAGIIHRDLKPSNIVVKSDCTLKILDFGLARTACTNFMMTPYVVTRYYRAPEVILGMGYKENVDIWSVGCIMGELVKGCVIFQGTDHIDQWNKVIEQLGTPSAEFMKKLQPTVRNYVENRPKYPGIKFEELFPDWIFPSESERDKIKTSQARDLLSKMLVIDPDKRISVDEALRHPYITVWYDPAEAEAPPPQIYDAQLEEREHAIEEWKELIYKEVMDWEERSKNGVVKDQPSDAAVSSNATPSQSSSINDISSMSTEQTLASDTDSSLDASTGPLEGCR", "experiment": "In vitro kinase inhibition screen", "assay_type": "biochemical", "protocol": "as §1"}, "Clk1": {"target": "Clk1 (Homo sapiens, UniProt P49759)", "experiment": "In vitro kinase inhibition screen", "assay_type": "biochemical", "protocol": "as §1"}, "JNK1α": {"target": "JNK1α (Homo sapiens, UniProt P45983)", "experiment": "In vitro kinase inhibition screen", "assay_type": "biochemical", "protocol": "as §1"}, "Rsk1": {"target": "Rsk1 (Homo sapiens, UniProt Q15418)", "experiment": "In vitro kinase inhibition screen", "assay_type": "biochemical", "protocol": "as §1"}, "PAK2": {"target": "PAK2 (Homo sapiens, UniProt Q13177)", "experiment": "In vitro kinase inhibition screen", "assay_type": "biochemical", "protocol": "as §1"}, "MEK1": {"target": "MEK1 (Homo sapiens, UniProt Q02750)", "experiment": "In vitro kinase inhibition screen", "assay_type": "biochemical", "protocol": "as §1"}, "MAP4K5": {"target": "MAP4K5 (Homo sapiens, UniProt Q9Y4K4)", "experiment": "In vitro kinase inhibition screen", "assay_type": "biochemical", "protocol": "as §1"}, "CDK5": {"target": "CDK5 (Homo sapiens, UniProt Q00535)", "experiment": "In vitro kinase inhibition screen", "assay_type": "biochemical", "protocol": "as §1"}, "PKCα": {"target": "PKCα (Homo sapiens, UniProt P17252)", "experiment": "In vitro kinase inhibition screen", "assay_type": "biochemical", "protocol": "as §1"}, "c-Raf": {"target": "c-Raf (Homo sapiens, UniProt P04049)", "experiment": "In vitro kinase inhibition screen", "assay_type": "biochemical", "protocol": "as §1"}, "MKK6": {"target": "MKK6 (Homo sapiens, UniProt P52564)", "sequence (P52564 whole entry, species assumed)": "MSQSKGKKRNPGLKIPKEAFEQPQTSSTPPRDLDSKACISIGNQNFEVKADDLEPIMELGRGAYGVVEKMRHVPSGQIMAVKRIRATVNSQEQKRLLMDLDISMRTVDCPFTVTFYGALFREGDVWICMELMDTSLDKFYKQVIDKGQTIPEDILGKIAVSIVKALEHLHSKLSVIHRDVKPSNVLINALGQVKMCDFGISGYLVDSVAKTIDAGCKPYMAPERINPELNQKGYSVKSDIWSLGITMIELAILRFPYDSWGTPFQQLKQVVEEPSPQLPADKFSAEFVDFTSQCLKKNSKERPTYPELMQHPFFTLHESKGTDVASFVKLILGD", "experiment": "In vitro kinase inhibition screen", "assay_type": "biochemical", "protocol": "as §1"}, "PDGFRβ [2]": {"target": "T1, PDGFRβ", "experiment": "In vitro kinase inhibition screen", "assay_type": "biochemical", "protocol": "as §1"}, "SAPK4": {"target": "SAPK4 (Homo sapiens, UniProt O15264)", "experiment": "In vitro kinase inhibition screen", "assay_type": "biochemical", "protocol": "as §1"}, "MKK4": {"target": "MKK4 (Homo sapiens, UniProt P45985)", "experiment": "In vitro kinase inhibition screen", "assay_type": "biochemical", "protocol": "as §1"}, "CDK1": {"target": "CDK1 (Homo sapiens, UniProt P06493)", "sequence (P06493 whole entry, species assumed)": "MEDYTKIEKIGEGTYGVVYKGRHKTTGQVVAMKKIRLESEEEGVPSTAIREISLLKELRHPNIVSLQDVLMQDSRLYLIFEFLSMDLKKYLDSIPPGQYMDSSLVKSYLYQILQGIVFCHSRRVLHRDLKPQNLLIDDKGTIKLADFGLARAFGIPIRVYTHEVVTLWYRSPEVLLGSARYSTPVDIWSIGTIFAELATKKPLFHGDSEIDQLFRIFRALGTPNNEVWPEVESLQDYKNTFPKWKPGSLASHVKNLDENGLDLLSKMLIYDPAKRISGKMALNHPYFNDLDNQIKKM", "sequence (P14635 whole entry partner, species assumed)": "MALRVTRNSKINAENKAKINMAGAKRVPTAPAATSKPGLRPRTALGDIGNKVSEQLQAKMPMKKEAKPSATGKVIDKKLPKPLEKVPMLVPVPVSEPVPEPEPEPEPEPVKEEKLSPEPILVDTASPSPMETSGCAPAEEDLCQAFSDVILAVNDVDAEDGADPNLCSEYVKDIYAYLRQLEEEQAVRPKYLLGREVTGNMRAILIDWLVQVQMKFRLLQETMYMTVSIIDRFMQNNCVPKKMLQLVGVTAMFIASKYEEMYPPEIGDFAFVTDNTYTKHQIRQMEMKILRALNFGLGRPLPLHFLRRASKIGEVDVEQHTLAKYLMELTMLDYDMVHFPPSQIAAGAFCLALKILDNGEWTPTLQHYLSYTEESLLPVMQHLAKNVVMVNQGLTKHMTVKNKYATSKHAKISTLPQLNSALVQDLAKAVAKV", "experiment": "In vitro kinase inhibition screen", "assay_type": "biochemical", "protocol": "as §1"}, "CamKIV": {"target": "CamKIV (Homo sapiens, UniProt Q16566)", "experiment": "In vitro kinase inhibition screen", "assay_type": "biochemical", "protocol": "as §1"}, "CamKII": {"target": "CamKII", "experiment": "In vitro kinase inhibition screen", "assay_type": "biochemical", "protocol": "as §1"}, "PKBα": {"target": "PKBα (Homo sapiens, UniProt P31749)", "experiment": "In vitro kinase inhibition screen", "assay_type": "biochemical", "protocol": "as §1"}, "p70S6K": {"target": "p70S6K (Homo sapiens, UniProt P23443)", "sequence (P23443 whole entry)": "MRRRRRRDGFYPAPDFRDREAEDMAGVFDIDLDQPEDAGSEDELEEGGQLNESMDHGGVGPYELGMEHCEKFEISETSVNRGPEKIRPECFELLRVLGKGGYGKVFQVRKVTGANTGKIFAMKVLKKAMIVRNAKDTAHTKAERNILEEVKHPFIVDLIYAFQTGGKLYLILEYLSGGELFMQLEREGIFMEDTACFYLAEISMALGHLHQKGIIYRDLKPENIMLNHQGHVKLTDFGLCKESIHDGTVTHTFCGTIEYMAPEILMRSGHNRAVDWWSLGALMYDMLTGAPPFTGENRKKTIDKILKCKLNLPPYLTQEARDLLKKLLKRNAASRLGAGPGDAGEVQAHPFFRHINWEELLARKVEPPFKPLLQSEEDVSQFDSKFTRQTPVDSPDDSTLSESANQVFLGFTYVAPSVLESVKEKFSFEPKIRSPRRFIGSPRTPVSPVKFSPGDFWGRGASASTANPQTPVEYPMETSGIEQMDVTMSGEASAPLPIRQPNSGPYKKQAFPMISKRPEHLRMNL", "experiment": "In vitro kinase inhibition screen", "assay_type": "biochemical", "protocol": "as §1"}, "CDK6": {"target": "CDK6 (Homo sapiens, UniProt Q00534)", "experiment": "In vitro kinase inhibition screen", "assay_type": "biochemical", "protocol": "as §1"}, "CK2": {"target": "CK2 (Homo sapiens, UniProt P68400)", "experiment": "In vitro kinase inhibition screen", "assay_type": "biochemical", "protocol": "as §1"}, "Lyn": {"target": "Lyn (Homo sapiens, UniProt P07948)", "experiment": "In vitro kinase inhibition screen", "assay_type": "biochemical", "protocol": "as §1"}, "Fes": {"target": "Fes (Homo sapiens, UniProt P07332)", "sequence (P07332 whole entry, species assumed)": "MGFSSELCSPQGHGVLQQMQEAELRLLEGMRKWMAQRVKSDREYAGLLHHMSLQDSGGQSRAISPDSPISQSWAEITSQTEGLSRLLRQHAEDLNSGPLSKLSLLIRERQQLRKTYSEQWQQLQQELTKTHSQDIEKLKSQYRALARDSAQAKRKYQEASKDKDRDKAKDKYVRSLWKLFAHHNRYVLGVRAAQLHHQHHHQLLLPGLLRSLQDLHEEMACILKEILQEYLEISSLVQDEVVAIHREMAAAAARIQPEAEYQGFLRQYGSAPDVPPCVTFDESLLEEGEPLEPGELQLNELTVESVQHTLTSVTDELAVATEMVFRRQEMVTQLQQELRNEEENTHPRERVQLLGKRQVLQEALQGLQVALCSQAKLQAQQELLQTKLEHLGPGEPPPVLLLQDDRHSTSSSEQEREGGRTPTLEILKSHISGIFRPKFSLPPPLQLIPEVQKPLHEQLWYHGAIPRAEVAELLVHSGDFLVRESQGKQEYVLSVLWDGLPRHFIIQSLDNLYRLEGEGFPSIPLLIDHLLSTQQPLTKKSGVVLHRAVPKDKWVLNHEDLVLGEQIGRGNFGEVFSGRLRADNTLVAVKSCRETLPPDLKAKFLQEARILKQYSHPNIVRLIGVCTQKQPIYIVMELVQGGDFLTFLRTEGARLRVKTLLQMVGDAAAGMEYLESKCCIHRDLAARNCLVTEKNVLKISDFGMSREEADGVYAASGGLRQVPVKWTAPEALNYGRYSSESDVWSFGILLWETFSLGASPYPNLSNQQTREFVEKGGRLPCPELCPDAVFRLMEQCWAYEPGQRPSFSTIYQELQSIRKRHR", "experiment": "In vitro kinase inhibition screen", "assay_type": "biochemical", "protocol": "as §1"}, "Yes": {"target": "Yes (Homo sapiens, UniProt P07947)", "experiment": "In vitro kinase inhibition screen", "assay_type": "biochemical", "protocol": "as §1"}, "CDK7": {"target": "CDK7 (Homo sapiens, UniProt P50613)", "experiment": "In vitro kinase inhibition screen", "assay_type": "biochemical", "protocol": "as §1"}},
  "data": [
    {"smiles": "COc1cc2c(Nc3ccc(Cl)c(Cl)c3F)ncnc2cc1OC[C@@H]1C[C@@H]2CN(C)C[C@@H]2C1", "note": "[XL-647, N-(3,4-dichloro-2-fluorophenyl)-7-({[(3aR,5r,6aS)-2-methyloctahydrocyclopenta[c]pyrrol-5-yl]methyl}oxy)-6-(methyloxy)quinazolin-4-amine]", "values": [
      {"measurement": "IC50", "setting": "PDGFRβ [1]", "result": "> 1200", "unit": "nM"},
      {"measurement": "IC50", "setting": "PKC-ξ", "result": "> 10000", "unit": "nM"},
      {"measurement": "IC50", "setting": "Rsk2", "result": "> 1000", "unit": "nM"},
      {"measurement": "IC50", "setting": "SGK", "result": "> 10000", "unit": "nM"},
      {"measurement": "IC50", "setting": "IKKβ", "result": "> 1000", "unit": "nM"},
      {"measurement": "IC50", "setting": "Syk", "result": "> 1000", "unit": "nM"},
      {"measurement": "IC50", "setting": "PKC-γ", "result": "> 10000", "unit": "nM"},
      {"measurement": "IC50", "setting": "CDK2", "result": "> 1000", "unit": "nM"},
      {"measurement": "IC50", "setting": "AMPK", "result": "> 1000", "unit": "nM"},
      {"measurement": "IC50", "setting": "JNK3α", "result": "> 1000", "unit": "nM"},
      {"measurement": "IC50", "setting": "IKKα", "result": "> 1000", "unit": "nM"},
      {"measurement": "IC50", "setting": "Rsk3", "result": "> 1000", "unit": "nM"},
      {"measurement": "IC50", "setting": "CSK", "result": 402, "unit": "nM"},
      {"measurement": "IC50", "setting": "MAPKAP2", "result": "> 10000", "unit": "nM"},
      {"measurement": "IC50", "setting": "Clk2", "result": "> 10000", "unit": "nM"},
      {"measurement": "IC50", "setting": "CDK3", "result": "> 1000", "unit": "nM"},
      {"measurement": "IC50", "setting": "SAPK3", "result": "> 1000", "unit": "nM"},
      {"measurement": "IC50", "setting": "MKK7β", "result": "> 1000", "unit": "nM"},
      {"measurement": "IC50", "setting": "JNK2α", "result": "> 1000", "unit": "nM"},
      {"measurement": "IC50", "setting": "Clk1", "result": "> 10000", "unit": "nM"},
      {"measurement": "IC50", "setting": "JNK1α", "result": "> 1000", "unit": "nM"},
      {"measurement": "IC50", "setting": "Rsk1", "result": "> 1000", "unit": "nM"},
      {"measurement": "IC50", "setting": "PAK2", "result": "> 1000", "unit": "nM"},
      {"measurement": "IC50", "setting": "MEK1", "result": "> 1000", "unit": "nM"},
      {"measurement": "IC50", "setting": "MAP4K5", "result": "> 1000", "unit": "nM"},
      {"measurement": "IC50", "setting": "CDK5", "result": "> 1000", "unit": "nM"},
      {"measurement": "IC50", "setting": "PKCα", "result": "> 10000", "unit": "nM"},
      {"measurement": "IC50", "setting": "c-Raf", "result": "> 1000", "unit": "nM"},
      {"measurement": "IC50", "setting": "MKK6", "result": "> 1000", "unit": "nM"},
      {"measurement": "IC50", "setting": "PDGFRβ [2]", "result": "346 ± 37", "unit": "nM"},
      {"measurement": "IC50", "setting": "SAPK4", "result": "> 1000", "unit": "nM"},
      {"measurement": "IC50", "setting": "MKK4", "result": "> 1000", "unit": "nM"},
      {"measurement": "IC50", "setting": "CDK1", "result": "> 1000", "unit": "nM"},
      {"measurement": "IC50", "setting": "CamKIV", "result": "> 1000", "unit": "nM"},
      {"measurement": "IC50", "setting": "CamKII", "result": "> 1000", "unit": "nM"},
      {"measurement": "IC50", "setting": "PKBα", "result": "> 10000", "unit": "nM"},
      {"measurement": "IC50", "setting": "p70S6K; list in excess of 1 μM", "result": "> 1000", "unit": "nM"},
      {"measurement": "IC50", "setting": "p70S6K; list in excess of 10 μM", "result": "> 10000", "unit": "nM"},
      {"measurement": "IC50", "setting": "CDK6", "result": "> 1000", "unit": "nM"},
      {"measurement": "IC50", "setting": "CK2", "result": "> 1000", "unit": "nM"},
      {"measurement": "IC50", "setting": "Lyn", "result": 2, "unit": "nM"},
      {"measurement": "IC50", "setting": "Fes", "result": 474, "unit": "nM"},
      {"measurement": "IC50", "setting": "Yes", "result": 1.1, "unit": "nM"},
      {"measurement": "IC50", "setting": "CDK7", "result": "> 1000", "unit": "nM"}
    ]}
  ]
}
